Results published in article PMC8596843, “Platinum Cyclooctadiene Complexes with Activity against Gram‐positive Bacteria” (Chemmedchem, 2021).
Marks after values point to notes of the source that are not given here.

How the values were obtained:
[1] = system: Staphylococcus aureus ATCC 43300 (MRSA); test: microbe, parasite or virus in culture; format: cell-based; conditions: for MIC Sa: CO‐ADD screening; for MIC: n=2; for MIC values as low as (panel of S. aureus strains): lowest MIC within the S. aureus panel
Method: (§1) All compounds submitted to CO‐ADD are initially screened against five bacterial strains (Staphylococcus aureus (MRSA), E. coli, Klebsiella pneumoniae, Pseudomonas aeruginosa, Acinetobacter baumannii) and two fungal strains (Candida albicans, Cryptococcus neoformans) at a single concentration (32 μg/mL or 20 μM) performed as a high‐throughput primary screening.[[11], [17a]] Any compounds that show significant growth inhibition against any of the tested strains at this step are then evaluated in a dose‐response assay against these same strains. […]
(§2) Smiles: C1C=CCCC(=CC1)C1=CCCC=CCC1.C[Pt]C.C[Pt]C […]
(§3) ATCC strains were sourced from the American Type Culture Collection and NRS strains from NARSA (Network on Antimicrobial Resistance in Staphylococcus aureus) via BEI Resources (www.beiresources.org), with clinical MSSA and MRSA isolates from Prof Graeme Nimmo, Queensland […]
(§4) Health Central Pathology. […]
(§5) Antibacterial minimum inhibitory concentration (MIC) assay
(§6) Compound Assay Plate Preparation: Compounds were dissolved in DMSO at 10mM (CO-ADD screening) or 4 mM (follow up screening) and were plated in a 2-fold dose response from 20 to 0.156 µM or 200 to 0.006 µM respectively, with a maximum of 0.5% or 1% DMSO, final in the assay […]
(§7) plated in a 2-fold dose response from 200 to 0.006 µM, with a maximum of 1 % DMSO, final in the assay concentration. (in-house screening)
(§8) For all the bacterial assays, each strain was cultured in Cation-adjusted Mueller Hinton broth (CAMHB; Bacto Laboratories 212322) at 37 °C overnight. A sample of each culture was then diluted 40-fold in fresh CAMHB and incubated at 37 °C for 1.5–3 h. The resultant mid-log phase cultures were diluted with CAMHB (CFU mL−1 measured by OD600), then added to each well of the compound-containing plates (384-well non-binding surface (NBS) plates; Corning CLS3640), giving a cell density of 5 × 10^5 CFU mL−1 and a total volume of 50 μL. Plates were covered and incubated at 37 °C for 18 h without shaking. Inhibition of bacterial growth was determined measuring absorbance at 600 nm (OD600), using media only as negative control and bacteria without inhibitors as positive control. MIC values were determined as the lowest concentration at which the growth was inhibited at ≥80%. Colistin sulfate (Sigma C4461) and vancomycin HCl (Sigma 861987) were used as internal controls on each plate for Gram-negative and Gram-positive bacteria, respectively. […]

[2] = system: Acinetobacter baumannii ATCC 19606; test: Antibacterial MIC assay; format: cell-based; conditions: CO‐ADD screening
Method: as §1, §2, §3, §4, §5, §6, §7, §8

[3] = system: Escherichia coli ATCC 25922; test: Antibacterial MIC assay; format: cell-based; conditions: CO‐ADD screening
Method: as §1, §2, §3, §4, §5, §6, §7, §8

[4] = system: Pseudomonas aeruginosa ATCC 27853; test: Antibacterial MIC assay; format: cell-based; conditions: CO‐ADD screening
Method: as §1, §2, §3, §4, §5, §6, §7, §8

[5] = system: Klebsiella pneumoniae ATCC 700603 (ESBL SHV‐18)
Method: as §1, §2, §3, §4, §5, §6, §7, §8

[6] = system: Candida albicans ATCC 90028; test: Antifungal MIC (CO-ADD screening); format: cell-based
Method: (§9) InChIKey: PHIWIZAHOBWKFJ-HPCBIOCFSA-N
(§10) Health Central Pathology. Candida albicans (ATCC 90028, NCCLS 11), Cryptococcus neoformans
as §5
(§11) concentration. (in-house screening)
(§12) Bacto Laboratories 212322) at 37 °C overnight.

[7] = system: Cryptococcus neoformans H99 ATCC 208821; test: Antifungal MIC (CO-ADD screening); format: cell-based
Method: as §9, §10, §5, §11, §12

[8] = system: HEK-293 ATCC CRL-1573 human embryonic kidney cells; format: cell-based
Method: As part of the CO‐ADD screening, all compounds that show any activity against a microbial strain are evaluated for their cytotoxicity against human embryonic kidney cells (HEK‐293) and for haemolysis against human red blood cells. None of the compounds tested for cytotoxicity (Pt1‐9 and Pd1) caused any significant cell death up to concentrations of 100 μM. […] We have also observed higher IC50 values for the methylated complexes Pt3 and Pt4 against HeLa cells in previous work.[16] […]
(§13) inhibitors as positive control.
(§14) Tamoxifen (Sigma T5648) was used
(§15) as internal control on each plate.
in a Neubauer haemocytometer. […]

human red blood cells = test: Haemolysis assay; format: cell-based; conditions: for Haemolysis HC10: concentration inducing 10 % haemolysis; for Haemolysis HC50: concentration inducing 50 % haemolysis
Method: As part of the CO‐ADD screening, all compounds that show any activity against a microbial strain are evaluated for their cytotoxicity against human embryonic kidney cells (HEK‐293) and for haemolysis against human red blood cells. None of the compounds tested for cytotoxicity (Pt1‐9 and Pd1) caused any significant cell death up to concentrations of 100 μM. […] We have also observed higher IC50 values for the methylated complexes Pt3 and Pt4 against HeLa cells in previous work.[16]
The resultant mid-log phase cultures were diluted
Gram-negative and Gram-positive bacteria, respectively.
final concentration range of 0.8 – 100 µM.
as §13, §14, §15
in a Neubauer haemocytometer.
incubated for 1 h at 37 °C, without shaking.
HC10 and HC50 (concentration at which 10%
for top, bottom and slope using Prism 8. […]

[9] = system: Staphylococcus aureus ATCC 25923, MSSA; test: Antibacterial MIC assay, Gram-positive panel; format: cell-based; conditions: n=4
Source text: (§16) Bis(dimethyl-η4)-((1Z,1'E,5Z,5'E)-(1,1'-bi(cyclooctadiene))diplatinum(II) (Pt14) Smiles: C1C=CCCC(=CC1)C1=CCCC=CCC1.C[Pt]C.C[Pt]C
as §9
(§17) Link to selected data that was repeated to approve the identity of the compounds: https://dx.doi.org/10.14272/PHIWIZAHOBWKFJ-HPCBIOCFSA-N.1
as §3, §4, §5, §6, §7, §8

[10] = system: Staphylococcus aureus VRS 1, VRSA (VanA); test: Antibacterial MIC assay, Gram-positive panel; format: cell-based; conditions: n=4
Source text: as §16, §9, §17, §3, §4, §5, §6, §7, §8

[11] = system: Bacillus subtilis ATCC 6051, type strain; test: Antibacterial MIC assay, Gram-positive panel; format: cell-based; conditions: n=2
Method: as §2, §3, §4, §5, §6, §7, §8

[12] = system: Enterococcus faecalis ATCC 29212, control strain; test: Antibacterial MIC assay, Gram-positive panel; format: cell-based; conditions: n=4
Method: as §2, §3, §4, §5, §6, §7, §8

[13] = system: Enterococcus faecalis Clinical Isolate, VRE (VanB); test: Antibacterial MIC assay, Gram-positive panel; format: cell-based; conditions: n=4
Method: as §2, §3, §4, §5, §6, §7, §8

[14] = system: Enterococcus faecium ATCC 35667, type strain; test: Antibacterial MIC assay, Gram-positive panel; format: cell-based; conditions: n=4
Method: as §2, §3, §4, §5, §6, §7, §8

[15] = system: Enterococcus faecium ATCC 51559, MDR, VRE (VanA); test: Antibacterial MIC assay, Gram-positive panel; format: cell-based; conditions: n=2
Method: as §2, §3, §4, §5, §6, §7, §8

[16] = system: Staphylococcus epidermidis ATCC 14990, type strain; test: Antibacterial MIC assay, Gram-positive panel; format: cell-based; conditions: n=4
Method: as §2, §3, §4, §5, §6, §7, §8

[17] = system: Staphylococcus epidermidis NRS 60, VISE; test: Antibacterial MIC assay, Gram-positive panel; format: cell-based; conditions: n=4
Method: as §2, §3, §4, §5, §6, §7, §8

Q: Which “MIC Sa” value [1] does the source give for `C1=C\CC/C=C\CC/1.[Cl-].[Cl-].[Pt+2]` [Pt1, Pt(COD)Cl2] here?
A: 0.625 to 2.5 µM

Q: And the MIC ([1]; Table 2 panel)?
A: 0.39^[b] μg/mL

Q: What about the “MIC values as low as (panel of S. aureus strains)” value [1] of the same compound?
A: 390 nM

Q: What about the “MIC Ab” value [2] of the same compound?
A: >20 µM

Q: And the “MIC Ec” value [3]?
A: >20 µM

Q: And the “MIC Pa” value [4]?
A: >20 µM

Q: And the “MIC Kp” value [5]?
A: >20 µM

Q: What about the “MIC Ca” value [6] of the same compound?
A: 10 to 20 µM

Q: What about the “MIC Cn” value [7] of the same compound?
A: 1.25 to 5 µM

Q: What about the CC50 [8] of the same compound?
A: > 100 µM

Q: And the “Haemolysis HC10” value (human red blood cells)?
A: >100 µM

Q: What about the “Haemolysis HC50” value (human red blood cells) of the same compound?
A: >100 µM

Q: What about the MIC ([9]; Table 2 panel) of the same compound?
A: 3.125^[a] μg/mL

Q: And the MIC ([10]; Table 2 panel)?
A: 12.5^[a] μg/mL

Q: And the MIC ([11]; Table 2 panel)?
A: 6.25^[b] μg/mL

Q: What about the MIC ([12]; Table 2 panel) of the same compound?
A: 50–100^[a] μg/mL

Q: And the MIC ([13]; Table 2 panel)?
A: 25^[a] μg/mL

Q: And the MIC ([14]; Table 2 panel)?
A: 25^[a] μg/mL

Q: And the MIC ([15]; Table 2 panel)?
A: 12.5^[b] μg/mL

Q: And the MIC ([16]; Table 2 panel)?
A: 0.781^[a] μg/mL

Q: What about the MIC ([17]; Table 2 panel) of the same compound?
A: 3.125^[a] μg/mL

Q: For `C1=CCC/C=C\CC1.[I][Pt][I]` [Pt2, Pt(COD)I2], which “MIC Sa” value [1] is on record?
A: 1.25 µM

Q: What about the MIC ([1]; Table 2 panel) of the same compound?
A: 0.39–0.78^[b] μg/mL

Q: And the “MIC values as low as (panel of S. aureus strains)” value [1]?
A: 390 nM

Q: What about the “MIC Ab” value [2] of the same compound?
A: >20 µM

Q: And the “MIC Ec” value [3]?
A: >20 µM

Q: What about the “MIC Pa” value [4] of the same compound?
A: >20 µM

Q: What about the “MIC Kp” value [5] of the same compound?
A: >20 µM

Q: What about the “MIC Ca” value [6] of the same compound?
A: 10 µM

Q: What about the “MIC Cn” value [7] of the same compound?
A: 2.5 µM

Q: What about the CC50 [8] of the same compound?
A: > 100 µM

Q: What about the “Haemolysis HC10” value (human red blood cells) of the same compound?
A: >100 µM

Q: And the “Haemolysis HC50” value (human red blood cells)?
A: >100 µM

Q: What about the MIC ([9]; Table 2 panel) of the same compound?
A: 1.56–3.125^[a] μg/mL

Q: What about the MIC ([10]; Table 2 panel) of the same compound?
A: 6.25^[a] μg/mL

Q: And the MIC ([11]; Table 2 panel)?
A: 3.125–6.25^[b] μg/mL

Q: And the MIC ([12]; Table 2 panel)?
A: 25–50^[a] μg/mL

Q: What about the MIC ([13]; Table 2 panel) of the same compound?
A: 12.5–25^[a] μg/mL

Q: What about the MIC ([14]; Table 2 panel) of the same compound?
A: 25^[a] μg/mL

Q: What about the MIC ([15]; Table 2 panel) of the same compound?
A: 12.5–25^[b] μg/mL

Q: And the MIC ([16]; Table 2 panel)?
A: 1.56^[a] μg/mL

Q: And the MIC ([17]; Table 2 panel)?
A: 6.25^[a] μg/mL

Q: `CCC1=CCCC=CCC1.[CH3][Pt][Cl]` [Pt7] was tested. Which “MIC Sa” value [1] did it give?
A: >20 µM

Q: What about the MIC ([1]; Table S1 panel) of the same compound?
A: 200 µM

Q: What about the “MIC Ab” value [2] of the same compound?
A: >20 µM

Q: What about the “MIC Ec” value [3] of the same compound?
A: >20 µM

Q: And the “MIC Pa” value [4]?
A: >20 µM

Q: What about the “MIC Kp” value [5] of the same compound?
A: >20 µM

Q: And the “MIC Ca” value [6]?
A: 10 µM

Q: What about the “MIC Cn” value [7] of the same compound?
A: 20 µM

Q: And the CC50 [8]?
A: > 100 µM

Q: What about the “Haemolysis HC10” value (human red blood cells) of the same compound?
A: 10.27 µM

Q: What about the “Haemolysis HC50” value (human red blood cells) of the same compound?
A: 52.12 µM

Q: And the MIC ([9]; Table S1 panel)?
A: > 200 µM

Q: And the MIC ([10]; Table S1 panel)?
A: > 200 µM

Q: What about the MIC ([11]; Table S1 panel) of the same compound?
A: > 200 µM

Q: What about the MIC ([12]; Table S1 panel) of the same compound?
A: > 200 µM

Q: What about the MIC ([13]; Table S1 panel) of the same compound?
A: > 200 µM

Q: What about the MIC ([14]; Table S1 panel) of the same compound?
A: > 200 µM

Q: What about the MIC ([15]; Table S1 panel) of the same compound?
A: 200 µM

Q: And the MIC ([16]; Table S1 panel)?
A: 200 µM

Q: What about the MIC ([17]; Table S1 panel) of the same compound?
A: > 200 µM
